Experiments:
[1] = tested on: transformed human keratinocyte cell line (FEP 1811); assay: Clonogenic survival cell culture assay for cytotoxicity; assay type: cell-based; details: Homo sapiens, Keratinocyte, light or radiation study; un-irradiated keratinocytes, one hour drug exposure, colonies counted after eight days; read-out: C50 (concentration of radioprotector that results in 50% clonogenic survival)
Experimental: • i. […] In appropriate cases, tautomers are drawn to illustrate potential hydrogen-bond donating configurations into the minor groove of DNA. • ii. 2-Amino-4-(5′-(4″-methylpiperazin-1″-yl)benzimidazol-2′-yl)aniline was prepared by hydrogenation of 4-(5′-(4″-methylpiperazin-1″-yl)benzimidazol-2′-yl)-2-nitroaniline, using a modification of the method of Kelly et al, Aust. […] 2-Amino-4-(5′-(piperidin-1″-yl)benzimidazol-2′-yl)aniline was prepared by hydrogenation of 2-nitro-4-(5′-(piperidin-1″-yl)benzimidazol-2′-yl)aniline, using a modification of the method of Kelly et al, Aust. […] Ethyl 4-amino-3-nitrobenzenecarboximidate hydrochloride was prepared by reaction of 4-amino-3-nitrobenzonitrile with dry HCl gas in ethanol, using the method of Kelly et al, Aust. […] 5-(4′-Methylpiperazin-1′-yl)-2-nitroaniline was prepared using a modification of the method of Kelly et al, Aust. […] The following chemicals were obtained from the chemical suppliers indicated: 2-furaldehyde (Aldrich), 2-pyridinecarboxaldehyde (Aldrich), 3-fluoropyridine-2-carbaldehyde (Maybridge), 3-trifluoromethylpyridine-2-carboxaldehyde (Apollo Scientific), 6-methyl-2-pyridinecarboxaldehyde (Matrix Scientific), 5-methylpyridine-2-carbonitrile (Apollo Scientific), 4-methyl-2-pyridinecarbonitrile (Aldrich), 4-chloro-2-pyridinecarbonitrile (Aldrich), 4-methoxypicolinonitrile (Combi-Blocks), pyrazinecarbonitrile (Aldrich), 2-quinolinecarbonitrile (Aldrich), 3-isoquinolinecarbonitrile (Aldrich), 1-isoquinolinecarboxylic acid (Aldrich), indazole-3-carboxylic acid (Aldrich), 2-hydroxynicotinic acid (Aldrich), 4-hydroxypiperidine (Aldrich), 1-methylhomopiperazine (Aldrich), 3-hydroxypiperidine (Aldrich), 4-(N-BOC-amino)piperidine (Aldrich), 4-methoxypiperidine (Acros), 4-methyl-3-nitrobenzonitrile (Aldrich), 5-chloro-2-nitroaniline (Aldrich), 2-cyanopyridine (Aldrich), methyl 4-amino-2-methoxybenzoic acid (Aldrich), 4-(trifluoromethyl)-2-pyridinecarbonitrile (Matrix Scientific), cis-2,6-dimethylmorphoiline (Acros), 5-(trifluoromethyl)-2-pyridinecarbonitrile (Advanced Chemical Intermediates) and 5-fluoro-2-pyridinecarbonitrile (Advanced Chemical Intermediates). • ix. […] Melting points were determined using an Electrothermal melting point apparatus, and are uncorrected. […] The abbreviations s for singlet, d for doublet, t for triplet, q for quartet, br for broad and m for muitiplet were used in the assignments of multiplicity. A value approximating the centre of a multiplet is quoted. […] The addition of a few drops of acetic acid to methanol-d4 solutions was used to enhance solubility for the acquisition of ^13C nmr spectra. Mass spectra were recorded on a Micromass Quattro II mass spectrometer and accurate mass analyses were carried out by the School of Chemistry at the University of Melbourne on a Finnigan LTQ-FT model high resolution mass spectrometer. Thin layer chromatography (TLC) was carried out using Merck silica gel 60 F254 aluminium sheets or Merck neutral aluminium oxide 150 F254 sheets. Flash column chromatography was carried out using Ajax silica gel 230-400 mesh. • xi. […] The details are described in detail in Martin et al (4) (the disclosure of which is included herein in its entirety by way of reference), but briefly, mid-log phase monolayer cultures are incubated with various concentrations of the test drugs for one hour, after which the monolayers are washed and dispersed into single cell suspensions using pronase, and finally appropriate numbers of cells are dispensed into Petri dishes. Colonies are counted after eight days incubation. […] The irradiation (with a dose rate of 0.6 Gy per minute) is started 30 minutes after addition of the test drug. After completion of irradiation, incubation of cultures is continued until the total time of exposure to the drug reaches 60 minutes. Cultures are then washed and plated for clonogenic survival as described for the cytotoxicity experiments.

[2] = tested on: transformed human keratinocyte cell line (FEP 1811); assay: Clonogenic survival cell culture assay for radioprotective activity (12 Gy 137Cs gamma irradiation); assay type: cell-based; details: 12 Gy; for DMF10 (dose modification factor at a concentration of 10 microM of radioprotector): 10 microM radioprotector; for DMFm (dose modification factor at maximum protection): DMF=Dp/Dc at survival level Sm; for PF (protection factor = Sm/So): survival at maximum protection vs irradiation only
Source text: PF is defined as a ratio of survival at maximum protection Sm and survival after irradiation only So: PF=Sm/So. DMF is defined as a ratio of doses that result in survival level of Sm in the presence Dp and the absence Dc of radioprotector: DMF=Dp/Dc. DMF10 is define in a similar way except that instead of Sm a survival at 10 microM of radioprotector is used.
PF (Protection Factor) is defined as a ratio of survival at maximum protection Sm and survival after irradiation only So:PF=Sm/So. DMF (Dose Modification Factor) is defined as a ratio of doses that result in survival level of Sm in the presence (Dp) and the absence (Dc) of radioprotector: DMF=Dp/Dc. DMF10 is defined in a similar way except that instead of Sm a survival at 10 microM of radioprotector is used.
• i. […] In appropriate cases, tautomers are drawn to illustrate potential hydrogen-bond donating configurations into the minor groove of DNA. • ii. 2-Amino-4-(5′-(4″-methylpiperazin-1″-yl)benzimidazol-2′-yl)aniline was prepared by hydrogenation of 4-(5′-(4″-methylpiperazin-1″-yl)benzimidazol-2′-yl)-2-nitroaniline, using a modification of the method of Kelly et al, Aust. […] 2-Amino-4-(5′-(piperidin-1″-yl)benzimidazol-2′-yl)aniline was prepared by hydrogenation of 2-nitro-4-(5′-(piperidin-1″-yl)benzimidazol-2′-yl)aniline, using a modification of the method of Kelly et al, Aust. […] Ethyl 4-amino-3-nitrobenzenecarboximidate hydrochloride was prepared by reaction of 4-amino-3-nitrobenzonitrile with dry HCl gas in ethanol, using the method of Kelly et al, Aust. […] 5-(4′-Methylpiperazin-1′-yl)-2-nitroaniline was prepared using a modification of the method of Kelly et al, Aust. […] The following chemicals were obtained from the chemical suppliers indicated: 2-furaldehyde (Aldrich), 2-pyridinecarboxaldehyde (Aldrich), 3-fluoropyridine-2-carbaldehyde (Maybridge), 3-trifluoromethylpyridine-2-carboxaldehyde (Apollo Scientific), 6-methyl-2-pyridinecarboxaldehyde (Matrix Scientific), 5-methylpyridine-2-carbonitrile (Apollo Scientific), 4-methyl-2-pyridinecarbonitrile (Aldrich), 4-chloro-2-pyridinecarbonitrile (Aldrich), 4-methoxypicolinonitrile (Combi-Blocks), pyrazinecarbonitrile (Aldrich), 2-quinolinecarbonitrile (Aldrich), 3-isoquinolinecarbonitrile (Aldrich), 1-isoquinolinecarboxylic acid (Aldrich), indazole-3-carboxylic acid (Aldrich), 2-hydroxynicotinic acid (Aldrich), 4-hydroxypiperidine (Aldrich), 1-methylhomopiperazine (Aldrich), 3-hydroxypiperidine (Aldrich), 4-(N-BOC-amino)piperidine (Aldrich), 4-methoxypiperidine (Acros), 4-methyl-3-nitrobenzonitrile (Aldrich), 5-chloro-2-nitroaniline (Aldrich), 2-cyanopyridine (Aldrich), methyl 4-amino-2-methoxybenzoic acid (Aldrich), 4-(trifluoromethyl)-2-pyridinecarbonitrile (Matrix Scientific), cis-2,6-dimethylmorphoiline (Acros), 5-(trifluoromethyl)-2-pyridinecarbonitrile (Advanced Chemical Intermediates) and 5-fluoro-2-pyridinecarbonitrile (Advanced Chemical Intermediates). • ix. […] Melting points were determined using an Electrothermal melting point apparatus, and are uncorrected. […] The abbreviations s for singlet, d for doublet, t for triplet, q for quartet, br for broad and m for muitiplet were used in the assignments of multiplicity. A value approximating the centre of a multiplet is quoted. […] The addition of a few drops of acetic acid to methanol-d4 solutions was used to enhance solubility for the acquisition of ^13C nmr spectra. Mass spectra were recorded on a Micromass Quattro II mass spectrometer and accurate mass analyses were carried out by the School of Chemistry at the University of Melbourne on a Finnigan LTQ-FT model high resolution mass spectrometer. Thin layer chromatography (TLC) was carried out using Merck silica gel 60 F254 aluminium sheets or Merck neutral aluminium oxide 150 F254 sheets. Flash column chromatography was carried out using Ajax silica gel 230-400 mesh. • xi.

melting point	SMILES	IC50 [1] [µM]	DMF10 (dose modification factor at a concentration of 10 microM of radioprotector) [2]	DMFm (dose modification factor at maximum protection) [2]	PF (protection factor = Sm/So) [2]
224 to 229 °C	CN1CCN(c2ccc3nc(-c4ccc5nc(-c6cc7ccccc7cn6)[nH]c5c4)[nH]c3c2)CC1 [Example 14, 3-(5′-(5″-(4′″-Methylpiperazin-1′″-yl)benzimidazol-2″-yl)benzimidazol-2′-yl)isoquinoline]	26	2.34	2.45	25.1
200 °C (dec.)	Cc1ccnc(-c2nc3ccc(-c4nc5ccc(N6CCN(C)CC6)cc5[nH]4)cc3[nH]2)c1 [Example 7, 4-Methyl-2-(5′-(5″-(4′″-methylpiperazin-1′″-yl)benzimidazol-2″-yl)benzimidazol-2′-yl)pyridine]	130	2.36	2.55	183.8
216 to 220 °C	CN1CCN(c2ccc3nc(-c4ccc5nc(-c6cc(N(C)C)ccn6)[nH]c5c4)[nH]c3c2)CC1 [Example 10, 4-Dimethylamino-2-(5′-(5″-(4′″-methylpiperazin-1′″-yl)benzimidazol-2″-yl)benzimidazol-2′-yl)pyridine]	18.6	1.39	1.51	10.1

The next lines start with the compound.

SMILES	melting point	IC50 [1] [µM]	DMF10 (dose modification factor at a concentration of 10 microM of radioprotector) [2]	DMFm (dose modification factor at maximum protection) [2]	PF (protection factor = Sm/So) [2]
Cc1ccc(-c2nc3ccc(-c4nc5ccc(N6CCC(O)CC6)cc5[nH]4)cc3[nH]2)nc1 [Example 51, 2-(5′-(5″-(4′″-hydroxypiperidin-1′″-yl)benzimidazol-2″-yl)benzimidazol-2′-yl)-5-methylpyridine]	208 to 213 °C	124	1.90	2.07	58.7
OC1CCN(c2ccc3nc(-c4ccc5nc(-c6ccccn6)[nH]c5c4)[nH]c3c2)CC1 [Example 22, 2-(5′-(5″-(4′″-Hydroxypiperidin-1′″-yl)benzimidazol-2″-yl)benzimidazol-2′-yl)pyridine]	226 to 229 °C	266	1.47	2.20	21.3
OCCN1CCN(c2ccc3nc(-c4ccc5nc(-c6ccccn6)[nH]c5c4)[nH]c3c2)CC1 [Example 41, 2-(5′-(5″-(4′″-(2″″-hydroxyethyl)piperazin-1′″-yl)benzimidazol-2″-yl)benzimidazol-2′-yl)pyridine]	218 to 221 °C	90.6	1.44	1.95	19.6
Cc1ccnc(-c2nc3ccc(-c4nc5ccc(N6CCOCC6)cc5[nH]4)cc3[nH]2)c1 [Example 21, 2-(5′-(5″-Morpholinobenzimidazol-2″-yl)benzimidazol-2′-yl)-4-methylpyridine]	214 to 230 °C	213	1.47	1.77	18.2
CN1CCN(c2ccc3nc(-c4ccc5nc(-c6ccc[nH]c6=O)[nH]c5c4)[nH]c3c2)CC1 [Example 18, 3-(5′-(5″-(4′″-Methylpiperazin-1′″-yl)benzimidazol-2″-yl)benzimidazol-2′-yl)pyridin-2(1H)-one]	244 to 248 °C	66.8	1.00	1.01	1.1
CCCCN1CCN(c2ccc3nc(-c4ccc5nc(-c6ccccn6)[nH]c5c4)[nH]c3c2)CC1 [Example 34, 2-(5′-(5″-(4′″-Butylpiperazin-1′″-yl)benzimidazol-2″-yl)benzimidazol-2′-yl)pyridine]		47	2.05	2.27	27.6
CN(C)Nc1ccc2[nH]c(-c3ccc4[nH]c(-c5ccccn5)nc4c3)nc2c1 [Example 46, 2-(5′-(5″-(2′″,2′″-dimethylhydrazinyl)benzimidazol-2″-yl)benzimidazol-2′-yl)pyridine]		74.6	1.29	1.71	27.9
CN1CCN(c2ccc3nc(-c4ccc5nc(-c6ccc(F)cn6)[nH]c5c4)[nH]c3c2)CC1 [Example 47, 5-fluoro-2-(5′-(5″-(4′″-methylpiperazin-1″-yl)benzimidazol-2″-yl)benzimidazol-2′-yl)pyridine]		538	2.20	2.46	40.0

Reference: patent USRE46943E1, “Radioprotector compounds and methods” (PETER MACCALLUM CANCER INSTITUTE, priority 2010, dated 2018)
